The values below come from US6071884A, “Pharmaceutical compositions and therapeutic methods” (Kirin Beer Kabushiki Kaisha, priority 1992, dated 2000).

Structures are written as SMILES.

The test system of one data set is red blood cells. The data set can be described thus: Red blood cell count in monkey. Format: in vivo, croo monkey. To be noted: for Number of Red Blood Cells: mean ± SD. The procedure:
Pharmacological Test 7: Blood-Platelet-Increasing Effect upon Monkey
Six croo monkeys (female, 3 to 5 years old, 2.3 to 2.8 kg), 2 monkeys in one group were used. A vehicle, 0.1 mg/body of the compound 33 or 1 mg/body of the compound 33 was intravenously administered to the monkeys. 6 and 9 days after the administration, blood was collected by using a blood-collecting tube EDTA-2K, and the numbers of blood platelets, white blood cells and red blood cells contained in the peripheral blood were measured by using an E-2500/cs. The results are shown in Tables 7-1, 7-2 and 7-3, respectively.

For data set [1], the system named is marrow cells (mononuclear cell fraction). Nature of the data set: Proliferation-stimulating effect on marrow cell of mouse (3H-TdR uptake). To be noted: percentage of control, 72 h. It counts as cell-based, mouse (BALB/c). The gist of the method:
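Mononuclear marrow cell fraction from 7-week-old female BALB/c mouse thigh bone, 1.5×10^6 cells/ml in 10% FCS RPMI 1640, cultured with test sample 72 h at 37° C. ³H-thymidine (0.5 μCi/well) then added for 8 h; nuclear ³H-TdR uptake counted by liquid scintillation.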

Data set [2] has the same test system. Nature of the data set: Effect on marrow cell of monkey (3H-TdR uptake). To be noted: Primates, 96 h, percentage of control, 4 days. Format: cell-based, croo monkey. The protocol: Pharmacological Test 2: Effect on Marrow Cell of Monkey
Marrow cells were prepared from the humerus of a croo monkey, and an MNF obtained by fractionation using a Lymphoprep (Nycomed Pharma AS, Oslo, Norway) was used in the following experiment.
The MNF was suspended in an RPMI 1640 medium added with 10% blood plasma of a croo monkey to make its concentration 1×10^6 cells/ml.
10 μl/well of a sample with a predetermined concentration and 100 μl/well of the above-prepared MNF were placed on a round-bottomed 96 well plate, and incubated under the conditions of 37° C. and 5% CO2 for 4 days. Thereafter, 0.5 μCi/well of ^3 H-TdR was added. After 6 hours, the cells were harvested, and the amount of the ^3 H-TdR taken in the nuclei was measured by a liquid scintillation counter.

A short description of data set [3]: Observation of body weight and general condition in monkey. Format: in vivo, croo monkey. To be noted: 1 mg/body i.v.; until 10 days after administration.

On to `CCCCCCCCCCCCCCCCCCCCCCCCCC(=O)N[C@@H](CO[C@H]1O[C@H](CO)[C@H](O)[C@H](O)[C@H]1O)[C@H](O)[C@H](O)CCCCCCCCCCCCCC` [Compound 33, (2S,3S,4R)-1-(α-D-galactopyranosyloxy)-2-hexacosanoylamino-3,4-octadecanediol], for which the “Number of Red Blood Cells” value is recorded as 498 ± 18 × 10^4 /μl in the data set with red blood cells (0.1 mg/body i.v., after 6 days, vehicle 516 ± 6); 538 ± 2 × 10^4 /μl with red blood cells (0.1 mg/body i.v., after 9 days, vehicle 506 ± 1); 569 ± 40 × 10^4 /μl in the data set with red blood cells (1 mg/body i.v., after 6 days, vehicle 516 ± 6); 574 ± 37 × 10^4 /μl with red blood cells (1 mg/body i.v., after 9 days, vehicle 506 ± 1). Also, the “red-blood-cell-increasing effect (in words)” value in the data set with red blood cells (0.1 mg/body, 9 days after administration) is recorded as “red-blood-cell-increasing effect was clearly found”. Also, the values for the activity at 0.1 µg/mL in data set [1] (10^-1 μg/ml) and in data set [2] (10^-1 μg/ml) were 460% and 177%, respectively. The activity at 0.01 µg/mL in data set [1] (10^-2 μg/ml) was 330%; in data set [2] (10^-2 μg/ml), 194%. The activity at 0.001 µg/mL in data set [1] (10^-3 μg/ml) came to 175%. For the same compound, the “abnormality in body weight and in general condition” value in data set [3] is “no abnormality in body weight and in general condition was found”.
